Source: the kinase profiling compilation of Christmann-Franck et al. (2016)

Experiments:
AURKB (human) [1] = molecular target: AURKB (human) (UniProt Q96GD4)
EPHB3 (human) = EPHB3 (human) (UniProt P54753)
MAPK3 (human) = MAPK3 (human) (UniProt P27361)
NEK6 (human) = NEK6 (human) (UniProt Q9HC98)
PAK4 (human) = PAK4 (human) (UniProt O96013)
ROCK2 (rat) = conditions: accession and sequence are those of the human protein
RPS6KA1 KD1 KD2 (human) = RPS6KA1 KD1 KD2 (human) (UniProt Q15418)
SRC (human) = SRC (human) (UniProt P12931)
AURKB (human) [2] = molecular target: AURKB (human) (UniProt Q96GD4); experiment: KINOMEscan competition binding; conditions: compound 10.0 µM
CASK (human) = CASK (human) (UniProt O14936); experiment: KINOMEscan competition binding; conditions: compound 10.0 µM
CDK9 (human) = CDK9 (human) (UniProt P50750); experiment: KINOMEscan competition binding; conditions: compound 10.0 µM
CDKL2 (human) = CDKL2 (human) (UniProt Q92772); experiment: KINOMEscan competition binding; conditions: compound 10.0 µM
CHUK (human) = CHUK (human) (UniProt O15111); experiment: KINOMEscan competition binding; conditions: compound 10.0 µM
DDR2 (human) = DDR2 (human) (UniProt Q16832); experiment: KINOMEscan competition binding; conditions: compound 10.0 µM
EPHA4 (human) = EPHA4 (human) (UniProt P54764); experiment: KINOMEscan competition binding; conditions: compound 10.0 µM
EPHA5 (human) = EPHA5 (human) (UniProt P54756); experiment: KINOMEscan competition binding; conditions: compound 10.0 µM
ERBB4 (human) = ERBB4 (human) (UniProt Q15303); experiment: KINOMEscan competition binding; conditions: compound 10.0 µM
FGFR1 (human) = FGFR1 (human) (UniProt P11362); experiment: KINOMEscan competition binding; conditions: compound 10.0 µM
FGFR4 (human) = FGFR4 (human) (UniProt P22455); experiment: KINOMEscan competition binding; conditions: compound 10.0 µM
HIPK3 (human) = HIPK3 (human) (UniProt Q9H422); experiment: KINOMEscan competition binding; conditions: compound 10.0 µM
IGF1R (human) = IGF1R (human) (UniProt P08069); experiment: KINOMEscan competition binding; conditions: compound 10.0 µM
IRAK3 (human) = IRAK3 (human) (UniProt Q9Y616); experiment: KINOMEscan competition binding; conditions: compound 10.0 µM
[3] = test system: KIT (human), P10721 [L576P]; experiment: KINOMEscan competition binding; conditions: compound 10.0 µM
LIMK2 (human) = LIMK2 (human) (UniProt P53671); experiment: KINOMEscan competition binding; conditions: compound 10.0 µM
MAP2K1 (human) = MAP2K1 (human) (UniProt Q02750); experiment: KINOMEscan competition binding; conditions: compound 10.0 µM
MAP2K6 (human) = MAP2K6 (human) (UniProt P52564); experiment: KINOMEscan competition binding; conditions: compound 10.0 µM
PHKG1 (human) = PHKG1 (human) (UniProt Q16816); experiment: KINOMEscan competition binding; conditions: compound 10.0 µM
[4] = test system: PIK3CA (human), P42336 [H1047L]; experiment: KINOMEscan competition binding; conditions: compound 10.0 µM
PIP4K2C (human) = PIP4K2C (human) (UniProt Q8TBX8); experiment: KINOMEscan competition binding; conditions: compound 10.0 µM
PKN1 (human) = PKN1 (human) (UniProt Q16512); experiment: KINOMEscan competition binding; conditions: compound 10.0 µM
PLK2 (human) = PLK2 (human) (UniProt Q9NYY3); experiment: KINOMEscan competition binding; conditions: compound 10.0 µM
PLK4 (human) = PLK4 (human) (UniProt O00444); experiment: KINOMEscan competition binding; conditions: compound 10.0 µM
PRKACB (human) = PRKACB (human) (UniProt P22694); experiment: KINOMEscan competition binding; conditions: compound 10.0 µM
PTK2B (human) = PTK2B (human) (UniProt Q14289); experiment: KINOMEscan competition binding; conditions: compound 10.0 µM
RPS6KA4 KD2 (human) = RPS6KA4 KD2 (human) (UniProt O75676); experiment: KINOMEscan competition binding; conditions: compound 10.0 µM
STK36 (human) = STK36 (human) (UniProt Q9NRP7); experiment: KINOMEscan competition binding; conditions: compound 10.0 µM
TGFBR1 (human) = TGFBR1 (human) (UniProt P36897); experiment: KINOMEscan competition binding; conditions: compound 10.0 µM
TGFBR2 (human) = TGFBR2 (human) (UniProt P37173); experiment: KINOMEscan competition binding; conditions: compound 10.0 µM
WEE1 (human) = WEE1 (human) (UniProt P30291); experiment: KINOMEscan competition binding; conditions: compound 10.0 µM
Chain of WEE1 (human) (P30291 whole entry, looked up): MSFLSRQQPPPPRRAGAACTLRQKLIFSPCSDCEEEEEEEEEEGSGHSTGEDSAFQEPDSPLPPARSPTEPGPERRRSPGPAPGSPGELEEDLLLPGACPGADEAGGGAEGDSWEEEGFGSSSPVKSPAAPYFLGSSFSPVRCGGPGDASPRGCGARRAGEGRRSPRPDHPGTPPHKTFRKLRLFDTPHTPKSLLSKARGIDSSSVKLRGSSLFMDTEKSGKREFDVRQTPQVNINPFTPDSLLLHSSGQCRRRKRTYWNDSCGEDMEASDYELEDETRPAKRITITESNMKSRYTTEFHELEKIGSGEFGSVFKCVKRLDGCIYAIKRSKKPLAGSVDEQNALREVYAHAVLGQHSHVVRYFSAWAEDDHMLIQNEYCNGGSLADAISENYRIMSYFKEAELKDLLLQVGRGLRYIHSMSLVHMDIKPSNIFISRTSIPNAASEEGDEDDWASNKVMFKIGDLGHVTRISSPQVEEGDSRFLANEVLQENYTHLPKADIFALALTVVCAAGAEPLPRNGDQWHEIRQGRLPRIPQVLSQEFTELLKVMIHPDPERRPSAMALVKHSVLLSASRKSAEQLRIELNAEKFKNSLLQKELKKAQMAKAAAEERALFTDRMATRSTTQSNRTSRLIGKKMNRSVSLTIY

Chain of PKN1 (human) (Q16512 whole entry, looked up): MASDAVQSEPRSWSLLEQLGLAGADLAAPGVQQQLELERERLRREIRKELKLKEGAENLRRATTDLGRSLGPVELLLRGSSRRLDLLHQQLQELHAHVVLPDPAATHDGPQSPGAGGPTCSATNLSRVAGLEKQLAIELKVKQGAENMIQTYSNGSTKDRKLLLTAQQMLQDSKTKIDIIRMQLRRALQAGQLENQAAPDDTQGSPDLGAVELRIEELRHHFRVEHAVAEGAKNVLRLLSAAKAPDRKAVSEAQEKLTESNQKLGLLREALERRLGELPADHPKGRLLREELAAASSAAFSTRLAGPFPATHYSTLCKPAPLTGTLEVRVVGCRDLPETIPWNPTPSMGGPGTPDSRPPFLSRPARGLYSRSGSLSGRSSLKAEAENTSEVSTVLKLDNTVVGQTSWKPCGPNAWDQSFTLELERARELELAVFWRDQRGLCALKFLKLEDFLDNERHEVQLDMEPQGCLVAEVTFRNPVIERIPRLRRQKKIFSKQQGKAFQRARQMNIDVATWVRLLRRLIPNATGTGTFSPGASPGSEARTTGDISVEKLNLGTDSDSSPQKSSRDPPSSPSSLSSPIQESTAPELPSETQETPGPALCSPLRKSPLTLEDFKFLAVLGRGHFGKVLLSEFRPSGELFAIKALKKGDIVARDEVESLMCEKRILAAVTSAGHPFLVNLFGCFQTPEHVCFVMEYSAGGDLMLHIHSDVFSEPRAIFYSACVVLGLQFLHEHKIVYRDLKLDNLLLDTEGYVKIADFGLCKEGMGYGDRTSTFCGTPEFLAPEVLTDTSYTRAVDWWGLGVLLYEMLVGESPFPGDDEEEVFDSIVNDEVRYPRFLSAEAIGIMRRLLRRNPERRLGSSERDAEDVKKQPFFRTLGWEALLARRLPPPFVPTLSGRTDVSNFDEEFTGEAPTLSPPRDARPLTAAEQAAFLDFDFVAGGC
Chain of PAK4 (human) (O96013 whole entry, looked up): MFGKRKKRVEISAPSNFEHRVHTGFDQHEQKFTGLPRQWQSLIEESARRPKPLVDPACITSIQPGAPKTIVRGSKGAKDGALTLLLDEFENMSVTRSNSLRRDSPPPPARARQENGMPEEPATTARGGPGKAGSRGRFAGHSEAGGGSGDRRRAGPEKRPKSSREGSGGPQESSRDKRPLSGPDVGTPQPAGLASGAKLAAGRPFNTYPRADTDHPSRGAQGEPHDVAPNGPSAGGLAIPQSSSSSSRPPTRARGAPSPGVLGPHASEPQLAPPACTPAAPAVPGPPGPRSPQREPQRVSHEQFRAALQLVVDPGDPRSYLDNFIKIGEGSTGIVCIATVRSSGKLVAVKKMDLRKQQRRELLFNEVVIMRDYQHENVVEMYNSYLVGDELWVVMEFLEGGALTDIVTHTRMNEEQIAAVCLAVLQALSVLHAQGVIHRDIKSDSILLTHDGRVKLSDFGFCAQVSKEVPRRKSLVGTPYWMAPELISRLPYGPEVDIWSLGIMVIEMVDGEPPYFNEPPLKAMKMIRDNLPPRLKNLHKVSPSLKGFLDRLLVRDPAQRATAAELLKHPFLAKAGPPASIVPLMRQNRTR
Chain of FGFR4 (human) (P22455 whole entry, looked up): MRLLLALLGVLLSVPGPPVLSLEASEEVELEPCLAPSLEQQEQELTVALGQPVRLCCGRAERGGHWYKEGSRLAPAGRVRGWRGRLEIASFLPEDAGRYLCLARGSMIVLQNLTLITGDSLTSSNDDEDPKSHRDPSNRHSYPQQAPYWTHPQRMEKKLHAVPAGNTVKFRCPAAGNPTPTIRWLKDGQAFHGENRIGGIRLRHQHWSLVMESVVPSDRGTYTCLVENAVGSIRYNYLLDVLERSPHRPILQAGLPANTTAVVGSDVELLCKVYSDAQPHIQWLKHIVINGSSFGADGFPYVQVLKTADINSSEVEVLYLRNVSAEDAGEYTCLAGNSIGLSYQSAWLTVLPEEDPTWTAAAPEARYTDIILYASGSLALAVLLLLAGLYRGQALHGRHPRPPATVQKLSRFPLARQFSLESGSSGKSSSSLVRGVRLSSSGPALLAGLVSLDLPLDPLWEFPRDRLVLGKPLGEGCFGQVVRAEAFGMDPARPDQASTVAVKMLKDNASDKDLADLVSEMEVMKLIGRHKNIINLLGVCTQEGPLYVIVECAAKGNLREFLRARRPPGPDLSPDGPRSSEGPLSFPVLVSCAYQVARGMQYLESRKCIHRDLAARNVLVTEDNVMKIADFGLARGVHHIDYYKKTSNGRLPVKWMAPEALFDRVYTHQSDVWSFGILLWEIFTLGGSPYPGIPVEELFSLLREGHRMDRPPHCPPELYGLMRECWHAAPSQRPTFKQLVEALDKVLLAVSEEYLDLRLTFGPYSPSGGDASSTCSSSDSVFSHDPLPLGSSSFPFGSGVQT
Chain of NEK6 (human) (Q9HC98 whole entry, looked up): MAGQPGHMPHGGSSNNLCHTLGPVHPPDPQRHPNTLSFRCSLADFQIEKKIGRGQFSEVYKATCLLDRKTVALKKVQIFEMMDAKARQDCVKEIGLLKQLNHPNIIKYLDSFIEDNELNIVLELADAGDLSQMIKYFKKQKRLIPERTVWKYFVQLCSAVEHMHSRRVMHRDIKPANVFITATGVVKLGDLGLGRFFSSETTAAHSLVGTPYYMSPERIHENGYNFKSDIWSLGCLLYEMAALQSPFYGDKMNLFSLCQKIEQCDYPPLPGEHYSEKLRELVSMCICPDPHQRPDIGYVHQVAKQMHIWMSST
Chain of TGFBR2 (human) (P37173 whole entry, looked up): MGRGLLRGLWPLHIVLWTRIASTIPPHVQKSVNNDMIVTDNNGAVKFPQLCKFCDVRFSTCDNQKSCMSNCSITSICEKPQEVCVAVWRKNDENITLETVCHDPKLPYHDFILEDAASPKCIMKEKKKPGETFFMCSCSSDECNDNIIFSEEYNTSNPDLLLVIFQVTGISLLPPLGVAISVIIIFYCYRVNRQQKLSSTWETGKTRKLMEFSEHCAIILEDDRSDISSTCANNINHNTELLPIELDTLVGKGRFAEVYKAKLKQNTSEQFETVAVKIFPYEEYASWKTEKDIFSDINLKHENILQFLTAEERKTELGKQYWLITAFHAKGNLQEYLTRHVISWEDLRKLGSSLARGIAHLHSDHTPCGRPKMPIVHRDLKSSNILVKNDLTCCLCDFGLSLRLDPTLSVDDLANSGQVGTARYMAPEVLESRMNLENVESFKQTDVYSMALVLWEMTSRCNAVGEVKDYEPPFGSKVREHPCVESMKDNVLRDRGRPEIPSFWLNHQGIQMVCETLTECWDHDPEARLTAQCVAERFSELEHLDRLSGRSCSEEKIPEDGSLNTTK
Chain of TGFBR1 (human) (P36897 whole entry, looked up): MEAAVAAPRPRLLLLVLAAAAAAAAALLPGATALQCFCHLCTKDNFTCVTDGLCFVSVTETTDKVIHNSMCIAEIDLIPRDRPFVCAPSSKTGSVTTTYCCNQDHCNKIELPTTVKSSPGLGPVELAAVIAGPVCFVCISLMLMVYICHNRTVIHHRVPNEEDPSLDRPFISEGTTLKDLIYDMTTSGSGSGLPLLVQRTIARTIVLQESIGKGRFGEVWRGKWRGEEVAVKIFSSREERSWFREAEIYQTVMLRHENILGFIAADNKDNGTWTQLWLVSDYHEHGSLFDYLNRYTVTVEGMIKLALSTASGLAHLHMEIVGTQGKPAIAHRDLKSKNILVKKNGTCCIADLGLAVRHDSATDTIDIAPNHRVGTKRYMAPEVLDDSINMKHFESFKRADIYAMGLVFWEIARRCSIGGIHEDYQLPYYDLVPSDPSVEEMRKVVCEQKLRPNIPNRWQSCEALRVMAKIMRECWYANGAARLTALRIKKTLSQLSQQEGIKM
Chain of CDKL2 (human) (Q92772 whole entry, looked up): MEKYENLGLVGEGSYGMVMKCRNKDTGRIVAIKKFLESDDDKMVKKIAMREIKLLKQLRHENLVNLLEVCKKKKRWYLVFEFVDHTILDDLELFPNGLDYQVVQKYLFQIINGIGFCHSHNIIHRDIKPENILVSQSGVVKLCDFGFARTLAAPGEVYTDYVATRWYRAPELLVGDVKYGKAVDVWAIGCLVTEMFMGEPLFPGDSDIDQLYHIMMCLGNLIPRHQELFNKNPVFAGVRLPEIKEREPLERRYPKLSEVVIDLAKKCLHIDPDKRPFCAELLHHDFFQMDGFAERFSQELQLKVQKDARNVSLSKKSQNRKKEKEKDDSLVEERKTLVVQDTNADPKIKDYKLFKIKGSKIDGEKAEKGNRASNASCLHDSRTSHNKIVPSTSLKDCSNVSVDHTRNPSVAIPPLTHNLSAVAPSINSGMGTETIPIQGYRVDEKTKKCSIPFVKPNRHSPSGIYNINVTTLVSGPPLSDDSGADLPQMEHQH

## COC(=O)Nc1ccc(-c2nc(N3CCOCC3)c3cnn(C4CCN(C(=O)OC)CC4)c3n2)cc1
AURKB (human) [1]; compound 1.0 µM
  per cent of control: 91%
AURKB (human) [1]; compound 10.0 µM
  per cent of control: 100%
EPHB3 (human); compound 1.0 µM
  per cent of control: 100%
EPHB3 (human); compound 10.0 µM
  per cent of control: 116%
MAPK3 (human); compound 1.0 µM
  per cent of control: 90%
MAPK3 (human); compound 10.0 µM
  per cent of control: 97%
NEK6 (human); compound 1.0 µM
  per cent of control: 96%
NEK6 (human); compound 10.0 µM
  per cent of control: 87%
PAK4 (human); compound 1.0 µM
  per cent of control: 93%
PAK4 (human); compound 10.0 µM
  per cent of control: 97%
ROCK2 (rat); compound 1.0 µM
  per cent of control: 92%
ROCK2 (rat); compound 10.0 µM
  per cent of control: 97%
RPS6KA1 KD1 KD2 (human); compound 1.0 µM
  per cent of control: 100%
RPS6KA1 KD1 KD2 (human); compound 10.0 µM
  per cent of control: 102%
SRC (human); compound 1.0 µM
  per cent of control: 90%
SRC (human); compound 10.0 µM
  per cent of control: 67%
AURKB (human) [2]
  kinase still bound, per cent of control: 100%
CASK (human)
  kinase still bound, per cent of control: 100%
CDK9 (human)
  per cent of control: 100%
CDKL2 (human)
  per cent of control: 94%
CHUK (human)
  kinase still bound, per cent of control: 63%
DDR2 (human)
  kinase still bound, per cent of control: 100%
EPHA4 (human)
  kinase still bound, per cent of control: 88%
EPHA5 (human)
  kinase still bound, per cent of control: 100%
ERBB4 (human)
  kinase still bound, per cent of control: 98%
FGFR1 (human)
  kinase still bound, per cent of control: 100%
FGFR4 (human)
  kinase still bound, per cent of control: 100%
HIPK3 (human)
  kinase still bound, per cent of control: 72%
IGF1R (human)
  per cent of control: 98%
IRAK3 (human)
  kinase still bound, per cent of control: 79%
[3]
  kinase still bound, per cent of control: 100%
LIMK2 (human)
  kinase still bound, per cent of control: 94%
MAP2K1 (human)
  kinase still bound, per cent of control: 100%
MAP2K6 (human)
  kinase still bound, per cent of control: 90%
PHKG1 (human)
  kinase still bound, per cent of control: 81%
[4]
  kinase still bound, per cent of control: 12%
PIP4K2C (human)
  kinase still bound, per cent of control: 12%
PKN1 (human)
  kinase still bound, per cent of control: 97%
PLK2 (human)
  kinase still bound, per cent of control: 96%
PLK4 (human)
  kinase still bound, per cent of control: 100%
PRKACB (human)
  per cent of control: 97%
PTK2B (human)
  kinase still bound, per cent of control: 92%
RPS6KA4 KD2 (human)
  kinase still bound, per cent of control: 88%
STK36 (human)
  kinase still bound, per cent of control: 91%
TGFBR1 (human)
  kinase still bound, per cent of control: 100%
TGFBR2 (human)
  kinase still bound, per cent of control: 78%
WEE1 (human)
  kinase still bound, per cent of control: 100%

## CC(C)n1nc(-c2cc3cc(O)ccc3[nH]2)c2c(N)ncnc21
AURKB (human) [1]; compound 1.0 µM
  per cent of control: 78%
AURKB (human) [1]; compound 10.0 µM
  per cent of control: 27%
EPHB3 (human); compound 1.0 µM
  per cent of control: 18%
EPHB3 (human); compound 10.0 µM
  per cent of control: 5%
MAPK3 (human); compound 1.0 µM
  per cent of control: 88%
MAPK3 (human); compound 10.0 µM
  per cent of control: 81%
NEK6 (human); compound 1.0 µM
  per cent of control: 99%
NEK6 (human); compound 10.0 µM
  per cent of control: 96%
PAK4 (human); compound 1.0 µM
  per cent of control: 88%
PAK4 (human); compound 10.0 µM
  per cent of control: 28%
ROCK2 (rat); compound 1.0 µM
  per cent of control: 105%
ROCK2 (rat); compound 10.0 µM
  per cent of control: 77%
RPS6KA1 KD1 KD2 (human); compound 1.0 µM
  per cent of control: 53%
RPS6KA1 KD1 KD2 (human); compound 10.0 µM
  per cent of control: 19%
AURKB (human) [2]
  kinase still bound, per cent of control: 85%
CDK9 (human)
  per cent of control: 96%
CDKL2 (human)
  per cent of control: 75%
CHUK (human)
  kinase still bound, per cent of control: 41%
DDR2 (human)
  kinase still bound, per cent of control: 11%
EPHA4 (human)
  kinase still bound, per cent of control: 36%
EPHA5 (human)
  kinase still bound, per cent of control: 55%
ERBB4 (human)
  kinase still bound, per cent of control: 49%
FGFR1 (human)
  kinase still bound, per cent of control: 8.5%
FGFR4 (human)
  kinase still bound, per cent of control: 12%
HIPK3 (human)
  kinase still bound, per cent of control: 0.9%
IGF1R (human)
  per cent of control: 100%
IRAK3 (human)
  kinase still bound, per cent of control: 12%
[3]
  kinase still bound, per cent of control: 0.8%
LIMK2 (human)
  kinase still bound, per cent of control: 77%
MAP2K1 (human)
  kinase still bound, per cent of control: 0.25%
MAP2K6 (human)
  kinase still bound, per cent of control: 70%
PHKG1 (human)
  kinase still bound, per cent of control: 50%
PIP4K2C (human)
  kinase still bound, per cent of control: 9.9%
PKN1 (human)
  kinase still bound, per cent of control: 85%
PLK2 (human)
  kinase still bound, per cent of control: 13%
PLK4 (human)
  kinase still bound, per cent of control: 2.6%
PRKACB (human)
  per cent of control: 65%
PTK2B (human)
  kinase still bound, per cent of control: 100%
RPS6KA4 KD2 (human)
  kinase still bound, per cent of control: 0%
STK36 (human)
  kinase still bound, per cent of control: 100%
TGFBR1 (human)
  kinase still bound, per cent of control: 1.1%
TGFBR2 (human)
  kinase still bound, per cent of control: 2.8%
WEE1 (human)
  kinase still bound, per cent of control: 72%

## COc1ccc(-c2ccc3c(N4CCOCC4)nc(N4C[C@@H](C)O[C@@H](C)C4)nc3n2)cc1CO
AURKB (human) [1]; compound 10.0 µM
  per cent of control: 86%
EPHB3 (human); compound 1.0 µM
  per cent of control: 100%
EPHB3 (human); compound 10.0 µM
  per cent of control: 78%
MAPK3 (human); compound 1.0 µM
  per cent of control: 102%
MAPK3 (human); compound 10.0 µM
  per cent of control: 87%
NEK6 (human); compound 1.0 µM
  per cent of control: 74%
NEK6 (human); compound 10.0 µM
  per cent of control: 83%
PAK4 (human); compound 1.0 µM
  per cent of control: 11%
PAK4 (human); compound 10.0 µM
  per cent of control: 75%
ROCK2 (rat); compound 1.0 µM
  per cent of control: 75%
ROCK2 (rat); compound 10.0 µM
  per cent of control: 86%
RPS6KA1 KD1 KD2 (human); compound 1.0 µM
  per cent of control: 100%
RPS6KA1 KD1 KD2 (human); compound 10.0 µM
  per cent of control: 86%
SRC (human); compound 10.0 µM
  per cent of control: 86%
AURKB (human) [2]
  kinase still bound, per cent of control: 73%
CASK (human)
  kinase still bound, per cent of control: 100%
CDK9 (human)
  per cent of control: 98%
CDKL2 (human)
  per cent of control: 95%
CHUK (human)
  kinase still bound, per cent of control: 72%
DDR2 (human)
  kinase still bound, per cent of control: 100%
EPHA4 (human)
  kinase still bound, per cent of control: 100%
EPHA5 (human)
  kinase still bound, per cent of control: 94%
ERBB4 (human)
  kinase still bound, per cent of control: 89%
FGFR1 (human)
  kinase still bound, per cent of control: 100%
FGFR4 (human)
  kinase still bound, per cent of control: 100%
HIPK3 (human)
  kinase still bound, per cent of control: 76%
IGF1R (human)
  per cent of control: 100%
IRAK3 (human)
  kinase still bound, per cent of control: 100%
[3]
  kinase still bound, per cent of control: 93%
LIMK2 (human)
  kinase still bound, per cent of control: 94%
MAP2K1 (human)
  kinase still bound, per cent of control: 100%
MAP2K6 (human)
  kinase still bound, per cent of control: 83%
PHKG1 (human)
  kinase still bound, per cent of control: 93%
[4]
  kinase still bound, per cent of control: 26%
PIP4K2C (human)
  kinase still bound, per cent of control: 87%
PKN1 (human)
  kinase still bound, per cent of control: 94%
PLK2 (human)
  kinase still bound, per cent of control: 100%
PLK4 (human)
  kinase still bound, per cent of control: 100%
PRKACB (human)
  per cent of control: 96%
PTK2B (human)
  kinase still bound, per cent of control: 84%
RPS6KA4 KD2 (human)
  kinase still bound, per cent of control: 95%
STK36 (human)
  kinase still bound, per cent of control: 92%
TGFBR1 (human)
  kinase still bound, per cent of control: 100%
TGFBR2 (human)
  kinase still bound, per cent of control: 92%
WEE1 (human)
  kinase still bound, per cent of control: 98%
